This note sets out measurements from patent US8252931B2, “Thiazolo[5,4-B]pyridine glucokinase activators” (Novartis AG, priority 2005, dated 2012).

Where two headings read alike, the source gives them in different places.

One assay addresses T1, recombinant GST-GK (Homo sapiens, UniProt P35557).
T1 sequence (P35557 1-465): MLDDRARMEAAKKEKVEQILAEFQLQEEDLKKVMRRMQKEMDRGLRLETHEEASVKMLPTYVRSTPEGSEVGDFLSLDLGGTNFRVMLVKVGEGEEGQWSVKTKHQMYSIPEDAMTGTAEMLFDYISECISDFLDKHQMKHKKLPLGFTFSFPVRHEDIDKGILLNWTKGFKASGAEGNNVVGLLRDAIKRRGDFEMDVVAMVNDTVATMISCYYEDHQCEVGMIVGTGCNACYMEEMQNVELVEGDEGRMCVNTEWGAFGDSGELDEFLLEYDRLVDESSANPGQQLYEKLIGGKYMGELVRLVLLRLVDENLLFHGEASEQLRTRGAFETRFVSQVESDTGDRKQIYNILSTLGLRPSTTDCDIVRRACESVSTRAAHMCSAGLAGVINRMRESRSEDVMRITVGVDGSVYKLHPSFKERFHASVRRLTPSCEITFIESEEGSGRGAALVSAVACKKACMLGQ
Put plainly: activation of recombinant GST-GK in vitro (primary enzyme assay). The assay is classed as biochemical. The settings on record: concentration of compound that produces a 50% increase in the activity of GK. An excerpt: For example, the glucokinase activation in vitro may be determined by measuring the activation of recombinant GST-GK by a compound of the present invention in the absence or the presence of GKRP, a 68,000 Da protein inhibitor of GK. In these assays, formation of glucose-6-phosphate is coupled directly to the formation of thio-NADH. GST-GK catalyzes the reaction of glucose and Mg-ATP to produce glucose-6-phosphate and ADP. Glucose-6-phosphate dehydrogenase (G6PDH) reduces thionicotinamide (thio-NAD) to thio-NADH. The assay measures the formation of thio-NADH at […].
The basic GK assay components are as follows: 25 mM HEPES (pH 7.1), 25 mM KCl, 2.5 mM MgCl2, 1 mM ATP (Sigma A-5394), 1 mM DTT, 1 mM thio-NAD (Sigma T-7375), 80 units/mL G6PDH (Sigma G-5885), 10 mM glucose and 110 nM GST-GK. For assessing reversal of GK inhibition by GKRP, 20 μM Fructose-6-phosphate (F-6-P) and 370 nM recombinant GKRP are added to these assay components. Fructose-1-phosphate (F-1-P) at 1 μM is used as a control in the GK/GKRP assay. F-1-P reverses inhibition of GST-GK by GKRP.
The assay is done in standard, 96-well, round-bottom plates (Corning) and the total assay volume is 25 μL. Test compounds are serially diluted into 100% DMSO and 0.5 μL of diluted compound in 100% DMSO is added to the assay plate. Assay reagents (24.5 μL) are added using a Zymark robotic platform. Buffer, containing HEPES, MgCl2, KCl, thio-NAD, G6PDH, glucose and GST-GK, are added (5 μL) using the Zymark 8-channel hand pipet. For the GK/GKRP assay, GKRP and F-6-P are also included. The reaction is then initiated by adding 19.5 μL of buffer containing HEPES, MgCl2, KCl, DTT and ATP using the Zymark Reagent Addition Station/Reagent Addition Module. The plates are read kinetically over 10 min at 25° C. using a SpectraMax Plus microplate spectrophotometer (Molecular Devices, Sunnyvale, Calif.) to monitor the increase in optical density at 405 nm. The GK activity in wells containing test compounds is compared with activity in DMSO control wells. The concentration of compound that produces a 50% increase in the activity of GK is calculated and expressed as EC50.

A further assay concerns DIO mice. Put plainly: glucokinase activation in vivo: oral glucose tolerance test in DIO mice. The settings on record: oral (po) dosing; different timepoints during the oral glucose tolerance test; statistically significant. An excerpt: The glucokinase activation in vivo may be determined as follows:
Male C57BL mice (Jackson Lab, Bar Harbor, Me.) are housed 2 per cage in a reversed light cycle room (light on from 8:00 p.m. to 8:00 a.m.) and given access to food and water ad libitum. To induce DIO, the mice are given a high fat diet (D12492 with 60% caloric intake from fat, Research Diets, New Brunswick, N.J.) from 4 weeks of age and maintained on the diet before being used. The DIO mice are used at 25 weeks of age. On the day of the study, animals are fasted at 7:30 a.m. Body weight measurement and basal blood sample collection are conducted at 10:00 a.m. Plasma glucose values are then determined. Animals are assigned into five groups (n=7/group) with the means of plasma glucose matched among the groups. At 10:30 a.m. animals are dosed with vehicle (water) or compound in vehicle with a dose volume of 5 ml/kg. The test compound is given at 3, 10, 30, or 100 mg/kg. One hour after vehicle or compound dosing, a blood sample (at 0 min) is taken followed by an oral glucose tolerance test (OGTT) at 1 g/kg (20% glucose in water) and a dose volume of 5 ml/kg. […] Plasma glucose concentrations are determined using a glucose meter (Ascensia Elite, Bayer Corp., Mishawaka, Ind.). […] Plasma insulin levels are determined by Luminex assay using Mouse Endocrine Lincoplex kit (Linco Research, Inc., St. Charles, Mo.). […]

[1] abbreviates: read-out: EC50 in primary enzyme assay.

Turning to `COc1ccc2nc(NC(=O)[C@H](CC3CCCC3)c3ccc(S(=O)(=O)N(CCC(=O)O)Cc4ccccc4)cc3)sc2n1` [Example 1, 3-(Benzyl-{4-[(R)-2-cyclopentyl-1-(5-methoxy-thiazolo[5,4-b]pyridin-2-ylcarbamoyl)-ethyl]-benzenesulfonyl}-amino)-propionic acid], the EC50 on recombinant GST-GK (setting [1]) was 270 nM; at recombinant GST-GK (read-out: EC50 in the in vitro assay measuring the activation of recombinant GST-GK), about 271 nM. In the assay with DIO mice, the reductions in glucose is listed as 38-53%.
In the case of `COCCN(CCC(=O)O)S(=O)(=O)c1ccc(C(CC2CCCC2)C(=O)Nc2nncs2)cc1` (stereo not drawn) [Example 2, 3-[{4-[2-Cyclopentyl-1-([1,3,4]thiadiazol-2-ylcarbamoyl)-ethyl]-benzene-sulfonyl}-(2-methoxy-ethyl)-amino]-propionic acid], the EC50 at recombinant GST-GK (setting [1]) was determined as 50000 nM.
Regarding `COc1ccc2nc(NC(=O)[C@H](CC3CCCC3)c3ccc(S(=O)(=O)N(CCC(=O)O)Cc4cc5ccccc5o4)cc3)sc2n1` [Example 3, 3-(Benzofuran-2-ylmethyl-{4-[(R)-2-cyclopentyl-1-(5-methoxy-thiazolo[5,4-b]pyridin-2-ylcarbamoyl)-ethyl]-benzenesulfonyl}-amino)-propionic acid], the EC50 at recombinant GST-GK (setting [1]) came to 220 nM.
Still for that read-out and setting: the figure for `COc1ccc2nc(NC(=O)C(CC3CCCC3)c3ccc(S(=O)(=O)N(CC(=O)O)Cc4ccco4)cc3)sc2n1` (stereo not drawn) [Example 4-9, ({4-[2-Cyclopentyl-1-(5-methoxy-thiazolo[5,4-b]pyridin-2-ylcarbamoyl)-ethyl]-benzenesulfonyl}-furan-2-ylmethyl-amino)-acetic acid] is 2400 nM.
Take `COc1ccc(CN(CCC(=O)O)S(=O)(=O)c2ccc([C@@H](CC3CCCC3)C(=O)Nc3nc4ccc(OC)nc4s3)cc2)cc1` [Example 4-21, 3-[{4-[(R)-2-Cyclopentyl-1-(5-methoxy-thiazolo[5,4-b]pyridin-2-ylcarbamoyl)-ethyl]-benzenesulfonyl}-(4-methoxy-benzyl)-amino]-propionic acid]: the EC50 at recombinant GST-GK (setting [1]) is 920 nM.
Same read-out and setting: the figure for `COCCN(CCC(=O)O)S(=O)(=O)c1ccc(C(CC2CCCC2)C(=O)Nc2nc3cccnc3s2)cc1` (stereo not drawn) [Example 4-41, 3-[{4-[2-Cyclopentyl-1-(thiazolo[5,4-b]pyridin-2-ylcarbamoyl)-ethyl]-benzenesulfonyl}-(2-methoxy-ethyl)-amino]-propionic acid] is 1200 nM; for `COCCN(CCC(=O)O)S(=O)(=O)c1ccc([C@@H](CC2CCCC2)C(=O)Nc2nc3ccc(SC)nc3s2)cc1` [Example 4-42, 3-[{4-[(R)-2-Cyclopentyl-1-(5-methylsulfanyl-thiazolo[5,4-b]pyridin-2-ylcarbamoyl)-ethyl]-benzenesulfonyl}-(2-methoxy-ethyl)-amino]-propionic acid] it is 230 nM.
For the compound `COCCOc1ccc2nc(NC(=O)[C@H](CC3CCCC3)c3ccc(S(=O)(=O)N(CCOC)CCC(=O)O)cc3)sc2n1` [Example 4-46, 3-[(4-{(R)-2-Cyclopentyl-1-[5-(2-methoxy-ethoxy)-thiazolo[5,4-b]pyridin-2-ylcarbamoyl]-ethyl}-benzenesulfonyl)-(2-methoxy-ethyl)-amino]-propionic acid], the EC50 at recombinant GST-GK (setting [1]) came out at 220 nM.
As to `COCCN(CCC(=O)O)S(=O)(=O)c1ccc([C@H](CC2CCCC2)C(=O)Nc2nc3ccc(Cl)nc3s2)cc1` [Example 4-51, 3-[{4-[(S)-1-(5-Chloro-thiazolo[5,4-b]pyridin-2-ylcarbamoyl)-2-cyclopentyl-ethyl]-benzenesulfonyl}-(2-methoxy-ethyl)-amino]-propionic acid], the EC50 on recombinant GST-GK (setting [1]) came to 44000 nM.
`COCCNC(=O)c1ccc2nc(NC(=O)[C@@H](CC3CCCC3)c3ccc(S(=O)(=O)N(CCOC)CCC(=O)O)cc3)sc2n1` [Example 4-60, 3-[(4-{(S)-2-Cyclopentyl-1-[5-(2-methoxy-ethylcarbamoyl)-thiazolo[5,4-b]pyridin-2-ylcarbamoyl]-ethyl}-benzenesulfonyl)-(2-methoxy-ethyl)-amino]-propionic acid]: the EC50 on recombinant GST-GK (setting [1]) came to 6000 nM.
